Patent publication US20210047304A1, “Bromodomain Inhibitors” (AbbVie Inc., priority 2016, published 2021)

Molecular target: BRD4 (BDI_K57-E168) (Homo sapiens, UniProt O60885)
Assay: TR-FRET bromodomain binding assay, BRD4 BDI

Compound	Ki
Cc1cc(F)cc(C)c1Oc1ccc(C(C)(C)O)cc1-c1cn(C)c(=O)cc1O[C@H]1CC[C@H](N2C(=O)CCC2=O)CC1 [Example 44, 1-[trans-4-({5-[2-(4-fluoro-2,6-dimethylphenoxy)-5-(2-hydroxypropan-2-yl)phenyl]-1-methyl-2-oxo-1,2-dihydropyridin-4-yl}oxy)cyclohexyl]pyrrolidine-2,5-dione]	3.38 µM
Cc1cc(F)cc(C)c1Oc1ccc(C(C)(C)O)cc1-c1cn(C)c(=O)cc1O[C@H]1CC[C@H](NC(=O)c2ccccc2C(=O)O)CC1 [Example 45, 2-{[trans-4-({5-[2-(4-fluoro-2,6-dimethylphenoxy)-5-(2-hydroxypropan-2-yl)phenyl]-1-methyl-2-oxo-1,2-dihydropyridin-4-yl}oxy)cyclohexyl]carbamoyl}benzoic acid]	4.17 µM
Cc1cc(F)cc(C)c1Oc1ccc(C(C)(C)O)cc1-c1cn(C)c(=O)cc1O[C@H]1CC[C@H](NC(=O)C(C)(C)CCO)CC1 [Example 47, N-[trans-4-({5-[2-(4-fluoro-2,6-dimethylphenoxy)-5-(2-hydroxypropan-2-yl)phenyl]-1-methyl-2-oxo-1,2-dihydropyridin-4-yl}oxy)cyclohexyl]-4-hydroxy-2,2-dimethylbutanamide]	4.02 µM
Cc1cc(F)cc(C)c1Oc1ccc(C(C)(C)O)cc1-c1cn(C)c(=O)cc1O[C@H]1CC[C@H](NC(=O)C2(C)CC2)CC1 [Example 51, N-[trans-4-({5-[2-(4-fluoro-2,6-dimethylphenoxy)-5-(2-hydroxypropan-2-yl)phenyl]-1-methyl-2-oxo-1,2-dihydropyridin-4-yl}oxy)cyclohexyl]-1-methylcyclopropane-1-carboxamide]	> 13 µM
Cc1cc(F)cc(C)c1Oc1ccc(C(C)(C)O)cc1-c1cn(C)c(=O)cc1O[C@H]1CC[C@H](N2CCCS2(=O)=O)CC1 [Example 52, 2-[trans-4-({5-[2-(4-fluoro-2,6-dimethylphenoxy)-5-(2-hydroxypropan-2-yl)phenyl]-1-methyl-2-oxo-1,2-dihydropyridin-4-yl}oxy)cyclohexyl]-1lambda^6,2-thiazolidine-1,1-dione]	3.48 µM

The next lines start with the values.

Ki	Compound
> 13 µM	Cc1cc(F)cc(C)c1Oc1ccc(C(C)(C)O)cc1-c1cn(C)c(=O)cc1O[C@H]1CC[C@H](N2C(=O)c3ccccc3C2=O)CC1 [Example 43, 2-[trans-4-({5-[2-(4-fluoro-2,6-dimethylphenoxy)-5-(2-hydroxypropan-2-yl)phenyl]-1-methyl-2-oxo-1,2-dihydropyridin-4-yl}oxy)cyclohexyl]-1H-isoindole-1,3(2H)-dione]
5.45 µM	Cc1cc(F)cc(C)c1Oc1ccc(C(C)(C)O)cc1-c1cn(C)c(=O)cc1O[C@H]1CC[C@H](NS(C)(=O)=O)CC1 [Example 46, N-[trans-4-({5-[2-(4-fluoro-2,6-dimethylphenoxy)-5-(2-hydroxypropan-2-yl)phenyl]-1-methyl-2-oxo-1,2-dihydropyridin-4-yl}oxy)cyclohexyl]methanesulfonamide]
1.79 µM	Cc1cc(F)cc(C)c1Oc1ccc(C(C)(C)O)cc1-c1cn(C)c(=O)cc1O[C@H]1CC[C@H](N2CCC(C)(C)C2=O)CC1 [Example 48, 4-{[trans-4-(3,3-dimethyl-2-oxopyrrolidin-1-yl)cyclohexyl]oxy}-5-[2-(4-fluoro-2,6-dimethylphenoxy)-5-(2-hydroxypropan-2-yl)phenyl]-1-methylpyridin-2(1H)-one]
2.53 µM	Cc1cc(F)cc(C)c1Oc1ccc(C(C)(C)O)cc1-c1cn(C)c(=O)cc1O[C@H]1CC[C@H](NC(=O)CCO)CC1 [Example 49, N-[trans-4-({5-[2-(4-fluoro-2,6-dimethylphenoxy)-5-(2-hydroxypropan-2-yl)phenyl]-1-methyl-2-oxo-1,2-dihydropyridin-4-yl}oxy)cyclohexyl]-3-hydroxypropanamide]
2.83 µM	Cc1cc(F)cc(C)c1Oc1ccc(C(C)(C)O)cc1-c1cn(C)c(=O)cc1O[C@H]1CC[C@H](NC(=O)C2CC2)CC1 [Example 50, N-[trans-4-({5-[2-(4-fluoro-2,6-dimethylphenoxy)-5-(2-hydroxypropan-2-yl)phenyl]-1-methyl-2-oxo-1,2-dihydropyridin-4-yl}oxy)cyclohexyl]cyclopropanecarboxamide]
